# Laboratory results as given in ChEMBL document CHEMBL1201862, “PubChem BioAssay data set” (2004).
#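 Method: 48-hour compound exposure of cells in 96-well plates, five concentrations, linear interpolation of endpoints. GI50 = concentration required for 50% inhibition of growth.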 The source made the active and inactive calls. No stated cut-off is given here; in the data, active = GI50 up to about 1.1 µM and inactive = higher.
# Legend:
# Assay in all cases: NCI-60 cell line screen, 48 h
# CAKI-1 = system: CAKI-1
# OVCAR-4 = system: OVCAR-4
# NCI-H460 = system: NCI-H460
# IGROV-1 = system: IGROV-1
# NCI/ADR-RES = system: NCI/ADR-RES
# SF-295 = system: SF-295
# T47D = system: T47D
# MOLT-4 = system: MOLT-4
# UACC-62 = system: UACC-62
# SNB-75 = system: SNB-75
# HCT-116 = system: HCT-116
# A549 = system: A549
# NCI-H23 = system: NCI-H23
# CCRF-CEM = system: CCRF-CEM
# U-251 = system: U-251
# HOP-92 = system: HOP-92
# MDA-MB-435 = system: MDA-MB-435
# LOX IMVI = system: LOX IMVI
# SK-MEL-5 = system: SK-MEL-5
# TK-10 = system: TK-10
Compound,GI50 (CAKI-1),GI50 (OVCAR-4),GI50 (NCI-H460),GI50 (IGROV-1),GI50 (NCI/ADR-RES),GI50 (SF-295),GI50 (T47D),GI50 (MOLT-4),GI50 (UACC-62),GI50 (SNB-75),GI50 (HCT-116),GI50 (A549),GI50 (NCI-H23),GI50 (CCRF-CEM),GI50 (U-251),GI50 (HOP-92),GI50 (MDA-MB-435),GI50 (LOX IMVI),GI50 (SK-MEL-5),GI50 (TK-10)
COC(=O)CNC(=O)C(Cc1ccccc1)NC(=O)c1ccc(-c2ccc(Cl)cc2Cl)o1 (stereo not given),19.2 µM (inactive),21.5 µM (inactive),15.2 µM (inactive),18.7 µM (inactive),21.8 µM (inactive),18.7 µM (inactive),20.7 µM (inactive),14.3 µM (inactive),13.6 µM (inactive),30.9 µM (inactive),14.8 µM (inactive),25 µM (inactive),23.7 µM (inactive),10.1 µM (inactive),28.5 µM (inactive),12.4 µM (inactive),26.9 µM (inactive),23.5 µM (inactive),31.6 µM (inactive),24.7 µM (inactive)
CC(=O)OC[C@]1(C(=O)C(O)c2ccoc2)[C@H](C)CC[C@@]23COC(=O)C2=CCC[C@@H]31 (stereo not given in full),> 10 µM (inactive),> 10 µM (inactive),> 10 µM (inactive),> 10 µM (inactive),> 10 µM (inactive),> 10 µM (inactive),> 10 µM (inactive),> 10 µM (inactive),> 10 µM (inactive),> 10 µM (inactive),> 10 µM (inactive),> 10 µM (inactive),> 10 µM (inactive),> 10 µM (inactive),> 10 µM (inactive),> 10 µM (inactive),> 10 µM (inactive),> 10 µM (inactive),> 10 µM (inactive),> 10 µM (inactive)
N#CC1Nc2ccccc2[C@@H](O)C1O (stereo not given in full),> 100 µM (inactive),> 100 µM (inactive),> 100 µM (inactive),> 100 µM (inactive),> 100 µM (inactive),> 100 µM (inactive),> 100 µM (inactive),> 100 µM (inactive),> 100 µM (inactive),> 100 µM (inactive),> 100 µM (inactive),> 100 µM (inactive),> 100 µM (inactive),> 100 µM (inactive),> 100 µM (inactive),> 100 µM (inactive),> 100 µM (inactive),> 100 µM (inactive),> 100 µM (inactive),> 100 µM (inactive)
COC1=C(NC(C)=O)C(=O)c2nc3n(c2C1=O)CCC3,18.3 µM (inactive),16.7 µM (inactive),27.5 µM (inactive),19.3 µM (inactive),19.5 µM (inactive),20.5 µM (inactive),34.3 µM (inactive),4.06 µM (inactive),18.2 µM (inactive),17.6 µM (inactive),15.7 µM (inactive),27.3 µM (inactive),20.4 µM (inactive),3.78 µM (inactive),23.8 µM (inactive),13.2 µM (inactive),3.64 µM (inactive),16.1 µM (inactive),17.5 µM (inactive),30.3 µM (inactive)
NS(=O)(=O)c1ccc(NC(NC(=O)C(C(F)(F)F)C(F)(F)F)(C(F)(F)F)C(F)(F)F)cc1,> 100 µM (inactive),> 100 µM (inactive),> 100 µM (inactive),> 100 µM (inactive),> 100 µM (inactive),> 100 µM (inactive),> 100 µM (inactive),> 100 µM (inactive),> 100 µM (inactive),> 100 µM (inactive),> 100 µM (inactive),> 100 µM (inactive),> 100 µM (inactive),> 100 µM (inactive),> 100 µM (inactive),> 100 µM (inactive),> 100 µM (inactive),> 100 µM (inactive),> 100 µM (inactive),0.305 µM (active)
CSc1c(C#N)c(N)nc2c(/N=N\c3ccc(Cl)cc3)c(N)nn12,18.7 µM (inactive),2.64 µM (inactive),11.1 µM (inactive),1.85 µM (inactive),16.8 µM (inactive),22.9 µM (inactive),1.67 µM (inactive),2.44 µM (inactive),3.33 µM (inactive),7.41 µM (inactive),7.87 µM (inactive),25 µM (inactive),2.6 µM (inactive),2.17 µM (inactive),4.33 µM (inactive),3.29 µM (inactive),9.89 µM (inactive),1.52 µM (inactive),14.6 µM (inactive),13.3 µM (inactive)
NCCSCc1ccccc1Cl,> 100 µM (inactive),64.9 µM (inactive),31.3 µM (inactive),51.4 µM (inactive),> 100 µM (inactive),41.1 µM (inactive),42.4 µM (inactive),31 µM (inactive),53.6 µM (inactive),37.5 µM (inactive),46.9 µM (inactive),> 100 µM (inactive),30.1 µM (inactive),25.2 µM (inactive),31.6 µM (inactive),68.2 µM (inactive),36 µM (inactive),25.7 µM (inactive),63 µM (inactive),26.4 µM (inactive)
